The source of these data is patent publication US8067456B2 (AEterna Zentaris GmbH, priority 2004, dated 2011).

Where a name gives a salt, the structure may show the parent alone.

For orientation: EC50 means the midpoint of the concentration-response curve.

The target of the first assay is T1, rat LHRH receptor (Rattus norvegicus, UniProt P30969).
T1 construct: expressed in transfected cells; host or cells: LTK cells (mouse fibroblasts, ATCC CCL-1.3)
T1 sequence (P30969 1-327): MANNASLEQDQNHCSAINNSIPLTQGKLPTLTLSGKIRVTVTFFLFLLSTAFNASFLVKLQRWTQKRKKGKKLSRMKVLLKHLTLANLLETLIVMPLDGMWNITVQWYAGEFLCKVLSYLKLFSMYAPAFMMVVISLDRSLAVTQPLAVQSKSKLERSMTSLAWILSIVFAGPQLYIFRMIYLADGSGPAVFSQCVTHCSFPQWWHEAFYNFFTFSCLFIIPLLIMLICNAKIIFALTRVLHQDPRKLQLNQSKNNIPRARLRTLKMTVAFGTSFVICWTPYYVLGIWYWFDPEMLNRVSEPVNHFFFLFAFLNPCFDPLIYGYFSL
As to the kind of experiment: LHRH receptor-ligand binding assay (transfected LTK cells).
Conditions: not given
Here is the method: ^125I-Triptorelin [^125I-(D)-Trp6-GnRH] was purchased from Biotrend (Cologne, Germany).
The specific activity was in each case 2.13 Ci/mmol.
LTK cells (mouse fibroblasts: ATCC No. CCL-1.3) which have been transfected with the rat LHRH receptor are cultivated in DMEM medium (Invitrogen Life Technologies, Germany) with penicillin (100 I.U./ml), streptomycin (0.1 mg/ml) and glutamine (0.01 mol/l) and 10% fetal calf serum (FCS; Invitrogen Life Technologies, Germany) on plastic tissue culture plates (Nunc, Germany, 245×245-20 mm).
80% confluent cell culture plates are washed twice with 50 ml of phosphate-buffered saline (PBS) and then detached with 0.01 M EDTA solution. The cells are pelleted by centrifugation at 200·g for 5 min in a laboratory centrifuge (Kendro, Germany). The cell pellet is resuspended in 3 ml of binding medium (DMEM; 10 mM Hepes; 0.5% BSA; 0.1% […]; 1 g/l bacitracin (add fresh, stock 100×); 0.1 g/l SBTI (add fresh, stock 1000×) and the cell count is determined by Trypan blue staining in a Neubauer counting chamber. The cell suspension is adjusted with binding medium to a concentration of 5×10^5 cells/0.05 ml.
Binding studies for competition plots are carried out as duplicates. The test substances are employed as 10 mM DMSO solutions. They are diluted to 4 times the final concentration employed with binding medium. 25 μl of the substance dilution are mixed with 25 μl of tracer solution (^125I-triptorelin or ^125I-cetrorelix). The tracer concentration is adjusted to approx. 50 000 cpm (measured in a Cobra II, γ counter. PE Liefe Science, Germany) in the final reaction volume of 100 μl.
200 μl of silicone/liquid paraffin mixture (84%:16%) are introduced into 650 μl conical tubes (Roth. Germany). 50 μl of the cell suspension are pipetted thereon, followed by 50 μl of the test substance/tracer mixture. The tubes are capped and incubated with vertical rotation in an incubator at 37° C. for 60 min. After incubation, the samples are centrifuged in a centrifuge (Kendro, Germany) at 900 rpm and subsequently shock-frozen in liquid N2. The tip with the cell pellet is cut off and transferred into prepared counting vials (Roth, Germany). The remainder of the conical tube with the remaining supernatant is likewise transferred into a counting vial. The measurement takes place in a γ counter for 1 min/sample.
Evaluation of the samples takes place after calculation of the specific binding compared with untreated cells, after subtraction of the nonspecific binding (excess of unlabeled ligand, 1 μM) by means of GraphPad Prism or alternatively by means of OMMM software.
As to `CCC(C)[C@H](NC(=O)[C@@]1(NC(=O)[C@H](CCc2ccc(OP(=O)(O)O)cc2)NC(=O)OCc2ccccc2)CCc2[nH]c3c(Cl)cc(Cl)cc3c2C1)C(N)=S` (stereo partly drawn) [Compound 12, benzyl[(S)-1-[(R)-6,8-dichloro-3-((S)-2-methyl-1-thiocarbamoylbutylcarbamoyl)-2,3,4,9-tetrahydro-1H-carbazol-3-ylcarbamoyl]-3-(4-phosphonooxyphenyl)propyl]carbamate], a half-maximal response (EC50) required 39.2 nM.

Staying with this assay, now noted: LTK cells transfected with rat LHRH receptor, 125I-triptorelin tracer, 37° C., 60 min; read-out: Binding to r-LHRHR EC50.
As to `CC(C)[C@H](NC(=O)[C@@]1(NC(=O)[C@H](CCCCN)NC(=O)CCc2ccc(F)cc2)CCc2[nH]c3c(Cl)cc(Cl)cc3c2C1)C(N)=O` [Compound 17, (S)-5-[(R)-3-((S)-1-carbamoyl-2-methylpropylcarbamoyl)-6,8-dichloro-2,3,4,9-tetrahydro-1H-carbazol-3-ylcarbamoyl]-5-[3-(4-fluorophenyl)propionylamino]pentylammonium trifluoroacetate], the EC50 came to 525 nM.

As to `CC(C)[C@H](NC(=O)[C@@]1(NC(=O)[C@@H](NC(=O)OCc2ccc(Cl)cc2)C(C)C)CCc2[nH]c3c(Cl)cc(Cl)cc3c2C1)C(N)=O` [Compound 1, 4-chlorobenzyl {(S)-1-[(R)-3-((S)-1-carbamoyl-2-methylpropylcarbamoyl)-6,8-dichloro-2,3,4,9-tetrahydro-1H-carbazol-3-ylcarbamoyl]-2-methylpropyl}carbamate], the EC50 was 261 nM.

Turning to `CCC(C)[C@H](NC(=O)[C@@]1(NC(=O)[C@@H](NC(=O)Cc2cccc(F)c2)C(C)CC)CCc2[nH]c3c(Cl)cc(Cl)cc3c2C1)C(N)=O` (stereo partly drawn) [Compound 5, (R)-6,8-dichloro-3-{(S)-2-[2-(3-fluorophenyl)acetylamino]-3-methylpentanoylamino}-2,3,4,9-tetrahydro-1H-carbazole-3-carboxylic acid ((S)-1-carbamoyl-2-methylbutyl)amide], the EC50 came out at 98.3 nM.

For `CCC(C)[C@H](NC(=O)[C@@]1(NC(=O)[C@H](CCc2ccc(OC(=O)OCc3ccccc3)cc2)NC(=O)OCc2ccccc2)CCc2[nH]c3c(Cl)cc(Cl)cc3c2C1)C(N)=O` (stereo partly drawn) [Compound 8, benzyl 4-{(S)-3-benzyloxycarbonylamino-3-[(R)-3-((S)-1-carbamoyl-2-methylbutylcarbamoyl)-6,8-dichloro-2,3,4,9-tetrahydro-1H-carbazol-3-ylcarbamoyl]propyl}phenylcarbonate], the EC50 was 45.3 nM.

As for `CCC(C)[C@H](NC(=O)Cc1ccccc1F)C(=O)N[C@]1(C(=O)N[C@H](C(N)=S)C(C)CC)CCc2[nH]c3c(Cl)cc(Cl)cc3c2C1` (stereo partly drawn) [Compound 13, (R)-6,8-dichloro-3-{(S)-2-[2-(2-fluorophenyl)acetylamino]-3-methylpentanoylamino}-2,3,4,9-tetrahydro-1H-carbazole-3-carboxylic acid ((S)-2-methyl-1-thiocarbamoylbutyl)amide], the EC50 was determined as 2.4 nM.

For `CCC(C)[C@H](NC(=O)[C@@]1(NC(=O)[C@H](CCc2ccc(O)cc2)NC(=O)Cc2ccccc2F)CCc2[nH]c3c(Cl)cc(Cl)cc3c2C1)C(N)=S` (stereo partly drawn) [Compound 14, (R)-6,8-dichloro-3-[(S)-2-[2-(2-fluorophenyl)acetylamino]-4-(4-hydroxyphenyl)butyrylamino]-2,3,4,9-tetrahydro-1H-carbazole-3-carboxylic acid ((S)-2-methyl-1-thiocarbamoyl-butyl)amide], the EC50 was 2.05 nM.

On to `CCC(C)[C@H](NC(=O)OCc1ccc(Cl)cc1)C(=O)N[C@]1(C(=O)N[C@H](C(N)=O)C(C)C)CCc2[nH]c3c(Cl)cc(Cl)cc3c2C1` (stereo partly drawn) [Compound 2, 4-chlorobenzyl {(S)-1-[(R)-3-((S)-1-carbamoyl-2-methylpropylcarbamoyl)-6,8-dichloro-2,3,4,9-tetrahydro-1H-carbazol-3-ylcarbamoyl]-2-methylbutyl}carbamate], for which the EC50 was 205 nM.

As to “2-chlorobenzyl {(S)-1-[(R)-3-((S)-carbamoyl-2-methylbutylcarbamoyl)-6,8-dichloro-2,3,4,9-tetrahydro-1H-carbazol-3-ylcarbamoyl]-2-methylbutyl}carbamate [Compound 6]”, the EC50 is 104 nM.

For `CCC(C)[C@H](NC(=O)[C@@]1(NC(=O)[C@H](CCc2ccc(O)cc2)NC(=O)CCc2ccccc2F)CCc2[nH]c3c(Cl)cc(Cl)cc3c2C1)C(N)=O` (stereo partly drawn) [Compound 22], the concentration for a half-maximal effect (EC50) came to 24.6 nM.

Regarding `CCC(C)[C@H](NC(=O)[C@@]1(NC(=O)[C@@H](NC(=O)OCc2ccc(Cl)cc2)C(C)CC)CCc2[nH]c3c(Cl)cc(Cl)cc3c2C1)C(N)=O` (stereo partly drawn) [Compound 3, 4-chlorobenzyl {(S)-1-[(R)-3-((S)-carbamoyl-2-methylbutylcarbamoyl)-6,8-dichloro-2,3,4,9-tetrahydro-1H-carbazol-3-ylcarbamoyl]-2-methylbutyl}carbamate], the half-maximal effective concentration (EC50) worked out at 47.2 nM.

For the compound `CCC(C)[C@H](NC(=O)[C@@]1(NC(=O)[C@@H](NC(=O)CCc2ccccc2F)C(C)CC)CCc2[nH]c3c(Cl)cc(Cl)cc3c2C1)C(N)=O` (stereo partly drawn) [Compound 23, (R)-6,8-dichloro-3-{(S)-2-[3-(2-fluorophenyl)propionylamino]-3-methylpentanoylamino}-2,3,4,9-tetrahydro-1H-carbazole-3-carboxylic acid ((S)-1-carbamoyl-2-methylbutyl)amide], the EC50 was determined as 72.9 nM.

On to `CCC(C)[C@H](NC(=O)CCc1ccc(F)cc1)C(=O)N[C@]1(C(=O)N[C@H](C(N)=O)C(C)C)CCc2[nH]c3c(Cl)cc(Cl)cc3c2C1` (stereo partly drawn) [Compound 16, (R)-6,8-dichloro-3-((S)-2-[3-(4-fluorophenyl)propionylamino]-3-methylpentanoylamino)-2,3,4,9-tetrahydro-1H-carbazole-3-carboxylic acid ((S)-1-carbamoyl-2-methylpropyl)amide], for which the EC50 is 628 nM.

Turning to `CCC(C)[C@H](NC(=O)[C@@]1(NC(=O)[C@H](CCc2ccc(OCCOCCOCCOCCOC)cc2)NC(=O)OCc2ccccc2)CCc2[nH]c3c(Cl)cc(Cl)cc3c2C1)C(N)=S` (stereo partly drawn) [Compound 24, benzyl {(S)-1-[(R)-6,8-dichloro-3-((S)-2-methyl-1-thiocarbamoylbutylcarbamoyl)-2,3,4,9-tetrahydro-1H-carbazol-3-ylcarbamoyl]-3-[4-(2-{2-[2-(2-methoxyethoxy)ethoxy]-ethoxy}ethoxy)phenyl]propyl}carbamate], the EC50 is 13.5 nM.

For the compound `CCC(C)[C@H](NC(=O)OCc1ccccc1)C(=O)N[C@]1(C(=O)N[C@H](C(N)=S)C(C)CC)CCc2[nH]c3c(Cl)cc(F)cc3c2C1` (stereo partly drawn) [Compound 25, benzyl {(S)-1-[(R)-8-chloro-6-fluoro-3-((S)-2-methyl-1-thiocarbamoylbutylcarbamoyl)-2,3,4,9-tetrahydro-1H-carbazol-3-ylcarbamoyl]-2-methylbutyl}carbamate], the EC50 was determined as 4.2 nM.
